Measured values: patent US10258600B2, “Aryl hydrocarbon receptor (AhR) modifiers as novel cancer therapeutics” (Trustees of Boston University, priority 2010, dated 2019)
Entries after “also recorded” stand apart in the source; their conditions may differ.

Tests used:
[1] = test system: BP1 cells; experiment: Toxicity of CB7993113 at highest doses tested; type: cell-based, human; conditions: 10 uM
Description: (§1) BP1 cells were cultured in the presence of vehicle (left) or 5 uM CB7993113 in Matrigel for 5 days. CB7993113 is not toxic at the highest doses tested, 10 uM.

[2] = biological target: T1, AhR (Homo sapiens, UniProt P35869); experiment: Radiolabeled TCDD displacement from in vitro translated AhR, sucrose gradient; type: binding; parameters: made in house; conditions: fractions 13-16 of sucrose gradient
T1 sequence (P35869 11-848): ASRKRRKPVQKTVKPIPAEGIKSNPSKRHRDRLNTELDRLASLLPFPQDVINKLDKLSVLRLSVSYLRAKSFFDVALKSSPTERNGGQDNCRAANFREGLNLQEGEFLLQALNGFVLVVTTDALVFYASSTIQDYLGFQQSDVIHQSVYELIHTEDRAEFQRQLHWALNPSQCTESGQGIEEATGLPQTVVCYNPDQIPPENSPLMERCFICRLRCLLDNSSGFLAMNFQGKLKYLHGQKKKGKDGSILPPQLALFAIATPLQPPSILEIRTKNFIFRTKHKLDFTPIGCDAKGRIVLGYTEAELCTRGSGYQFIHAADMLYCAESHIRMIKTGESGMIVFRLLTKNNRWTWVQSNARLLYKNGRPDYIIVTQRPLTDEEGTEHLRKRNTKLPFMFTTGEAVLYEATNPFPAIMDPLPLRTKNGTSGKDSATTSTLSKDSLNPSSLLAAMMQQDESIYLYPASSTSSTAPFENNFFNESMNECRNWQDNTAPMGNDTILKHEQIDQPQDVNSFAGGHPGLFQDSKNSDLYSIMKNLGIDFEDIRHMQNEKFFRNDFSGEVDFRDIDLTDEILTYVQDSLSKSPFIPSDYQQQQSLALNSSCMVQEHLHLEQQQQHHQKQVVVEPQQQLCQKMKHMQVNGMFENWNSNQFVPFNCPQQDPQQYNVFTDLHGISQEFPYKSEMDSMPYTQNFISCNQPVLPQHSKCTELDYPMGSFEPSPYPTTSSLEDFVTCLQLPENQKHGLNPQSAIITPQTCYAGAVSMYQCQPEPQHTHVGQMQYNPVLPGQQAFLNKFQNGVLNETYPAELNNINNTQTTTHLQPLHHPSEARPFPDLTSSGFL
Description: The compounds CMLD-2166 and CB7993113 were mixed with in vitro translated human AhR and radiolabeled TCDD (dioxin), a high affinity AhR ligand. Complexes then were separated on a sucrose gradient and fractions assayed for radioactivity. A decrease in the signal (displacement of radiolabeled TCDD) can be seen in fractions 13-16 indicating binding of the test compound to the AhR and displacement of TCDD.

[3] = test system: bone marrow hematopoietic cells; experiment: DMBA-induced bone marrow toxicity in mice; type: in vivo, C57BL/6 mice; conditions: 48 hours; for DMBA-induced decrease in total number of bone marrow cells: 50 mg/kg i.p., 50 mg/kg DMBA; for DMBA-induced decrease in pro B cells, pre-B cells and neutrophils: co-administration with 50 mg/kg DMBA
Description: To test the ability of one of the lead compounds described herein, CB7993113, to be absorbed and to function effectively in vivo, C57BL/6 mice were treated with an acutely toxic dose (50 mg/kg) of DMBA, a potent AhR agonist, in the presence or absence of CB7993113 or another AhR inhibitor, CH223191. […] This decrease in the total number of bone marrow cells was prevented by the i.p. injection of 50 mg/kg CH223191 or CB7993113.
Mice then were injected with 50 mg/kg DMBA. Mice were sacrificed 48 hours later. Bone marrow hematopoietic cells were expunged from the bone and viable cells counted. Data are presented as the average number of viable white blood cells+SE. **p<0.01, ***P<0.001, student's t-test. […] C57BL/6 mice (6/group) were treated as in FIG. 8A. The percentage and number of viable bone marrow pro B cells, pre B cells, and neutrophils were determined 48 hours later by flow cytometry. Data are presented as the average number of viable cells of each subtype+SE. (*p<0.05, **P<0.01, student's t-test).

[4] = test system: BP1 cells; experiment: Tumor invasion in Matrigel, BP1; type: cell-based, human; conditions: 5 uM, 5 days
Description: as §1
BP1 cells were cultured in Matrigel in the presence of vehicle, 5 μM DIM (16A), vehicle or 5 uM CB7950998 (16B) for 5 days.

[5] = biological target: T2, AhR (Mus musculus, UniProt P30561); experiment: AhR nuclear translocation, western immunoblot of Hepa-1 nuclear and cytoplasmic extracts; type: cell-based; parameters: endogenous in cells; conditions: Hepa-1 cells
Description: To determine whether the inhibitory action of CB7993113 involves binding to the AhR and blocking its translocation to the nucleus, Hepa-1 cells were treated with 1-10 uM CB7993113. One hour later they were challenged with a strong AhR agonist and prototypic PAH, DMBA (1 uM). After a 30 minute incubation period, cells were harvested and extracts from cell nuclei and cytoplasm were obtained. These extracts then were probed for levels of AhR and, as a loading control, β-actin, by western immunoblotting.
Hepa-1 cells were treated with vehicle or 1-10 μM CH223191. One hour later cells were treated with 0.1 μM DMBA (where indicated) and incubated for 30 minutes. Cells were harvested and proteins from the cytoplasm and nuclei were extracted. Extracted proteins were subjected to AhR- or, as loading control, β-actin-specific western immunoblots. Data are representative of 3 independent experiments.

[6] = biological target: T3, PPARγ (Homo sapiens, UniProt P37231); experiment: PPARγ-driven luciferase reporter in Cos 7 cells; type: cell-based; conditions: rosiglitazone 1 μM, 18-24 hrs
T3 construct: expressed in transfected cells; host or cells: Cos 7 cells
T3 sequence (P37231 1-505): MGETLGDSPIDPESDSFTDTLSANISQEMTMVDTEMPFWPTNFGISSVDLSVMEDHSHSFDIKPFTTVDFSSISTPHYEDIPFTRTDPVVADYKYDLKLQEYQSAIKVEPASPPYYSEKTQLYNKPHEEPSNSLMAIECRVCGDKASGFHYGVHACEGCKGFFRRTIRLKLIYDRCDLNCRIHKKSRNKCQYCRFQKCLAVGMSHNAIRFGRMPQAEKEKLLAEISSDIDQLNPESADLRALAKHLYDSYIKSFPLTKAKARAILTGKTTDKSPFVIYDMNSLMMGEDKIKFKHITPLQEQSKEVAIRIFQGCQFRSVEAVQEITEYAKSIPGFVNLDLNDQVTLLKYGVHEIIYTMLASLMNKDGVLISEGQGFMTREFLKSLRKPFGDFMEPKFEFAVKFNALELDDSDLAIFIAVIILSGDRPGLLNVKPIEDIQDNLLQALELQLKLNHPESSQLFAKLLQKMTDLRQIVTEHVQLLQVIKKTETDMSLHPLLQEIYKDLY
T3 sequence (P19793 1-462 partner): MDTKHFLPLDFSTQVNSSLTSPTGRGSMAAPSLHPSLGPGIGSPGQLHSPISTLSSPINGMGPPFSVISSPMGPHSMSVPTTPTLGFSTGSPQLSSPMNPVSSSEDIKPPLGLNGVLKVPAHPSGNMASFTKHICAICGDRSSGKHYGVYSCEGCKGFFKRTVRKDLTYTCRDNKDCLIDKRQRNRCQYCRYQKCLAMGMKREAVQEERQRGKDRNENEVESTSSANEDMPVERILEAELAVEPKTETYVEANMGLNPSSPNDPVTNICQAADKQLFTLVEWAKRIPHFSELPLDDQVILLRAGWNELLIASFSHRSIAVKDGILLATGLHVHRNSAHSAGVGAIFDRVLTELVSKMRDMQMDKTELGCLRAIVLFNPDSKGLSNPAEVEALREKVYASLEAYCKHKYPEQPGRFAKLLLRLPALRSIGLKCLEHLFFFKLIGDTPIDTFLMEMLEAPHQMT
Description: Cos 7 cells were transfected with the peroxisome proliferator activator receptor-γ (PPARγ), its dimerization partner, RXR, a PPARγ-driven luciferase reporter construct, and a control CMV-driven GFP reporter for 24 hours. Cells then were treated with a vehicle, 10 μM AhR inhibitor CH223191, 50 μM AhR inhibitor CMLD-2166, or 10 μM AhR inhibitor CB7993113. (These represent high AhR inhibitor doses). Rosiglitazone (1 μM), a strong PPARγ agonist, was added 1 hour later and cells assayed 18-24 hrs thereafter for PPARγ-driven reporter activity (luciferase intensity), normalized to the GFP signal. Data were pooled from 4 experiments. Unlike their ability to block AhR-driven reporter activity, the AhR inhibitors had no effect on the PPARγ-driven reporter activity.

[7] = test system: BP1 and MCF-10F cells; experiment: 3H-thymidine incorporation cell growth; type: cell-based, human; conditions: 18 hrs
[8] = biological target: T2, AhR; experiment: High throughput AhR-driven GFP reporter bioassay in H1G1 cells; type: cell-based; parameters: H1G1 cells expressing an AhR-driven GFP reporter construct; endogenous in cells; host or cells: H1G1 cells; conditions: titered in presence of 1 μM BNF; read-out: AhR Antagonists IC50
Description: Using a high throughput reporter-based AhR bioassay and cell viability assay, over 4000 CMLD compounds, FDA drugs, and NCI-generated extracts were screened, and 8 non-toxic AhR inhibitors (2 from the CMLD) and 19 AhR agonists (14 from the CMLD) were identified (as shown in, e.g., FIGS. 4A-4B). IC50 values for inhibitors and EC50 values for agonists were determined (Table 1). One of these discovered inhibitors (CMLD-2166), its enantiomer (CMLD-2186), and a previously described lipid soluble AhR inhibitor (CH223191) blocked tumor growth and invasion (FIGS. 5A-5B and 7A-7B).
FIGS. 4A-4B show high-throughput screening (HTS) for AhR agonists and antagonists. […] A dark circle identifies an AhR inhibitor while the light circle indicates an agonist. […] Over 4,000 compounds were screened in this semi-automated assay.

[9] = test system: Hs578T cells; experiment: Tumor invasion in Boyden Chambers; type: cell-based, human; conditions: 10^−5M, 2 days
Description: (§2) Hs578T cells were cultured in Boyden Chambers (FIG. 7A) or in Matrigel (FIG. 7B) in the presence of DMSO, 10^−5M CMLD-2166, CMLD-2186 (a 2166 enantiomer) or CH223191 and assayed for invasion 2 (Boyden Chambers) or 7 (Matrigel) days later.

[10] = test system: Hs578T cells; experiment: Tumor invasion in Matrigel, Hs578T; type: cell-based, human; conditions: 10^−5M, 7 days
Description: as §2

[11] = biological target: T1, AhR; experiment: AhR-responsive pGudLuc reporter, constitutive AhR activity; type: cell-based; parameters: malignant BP1 and immortalized MCF-10F cells that were transiently transfected with AhR-responsive pGudLuc; endogenous in cells; host or cells: BP1 and MCF-10F cells; conditions: BP1 and MCF-10F cells, 24 hrs

T2 sequence (P30561 10-805 limits assumed): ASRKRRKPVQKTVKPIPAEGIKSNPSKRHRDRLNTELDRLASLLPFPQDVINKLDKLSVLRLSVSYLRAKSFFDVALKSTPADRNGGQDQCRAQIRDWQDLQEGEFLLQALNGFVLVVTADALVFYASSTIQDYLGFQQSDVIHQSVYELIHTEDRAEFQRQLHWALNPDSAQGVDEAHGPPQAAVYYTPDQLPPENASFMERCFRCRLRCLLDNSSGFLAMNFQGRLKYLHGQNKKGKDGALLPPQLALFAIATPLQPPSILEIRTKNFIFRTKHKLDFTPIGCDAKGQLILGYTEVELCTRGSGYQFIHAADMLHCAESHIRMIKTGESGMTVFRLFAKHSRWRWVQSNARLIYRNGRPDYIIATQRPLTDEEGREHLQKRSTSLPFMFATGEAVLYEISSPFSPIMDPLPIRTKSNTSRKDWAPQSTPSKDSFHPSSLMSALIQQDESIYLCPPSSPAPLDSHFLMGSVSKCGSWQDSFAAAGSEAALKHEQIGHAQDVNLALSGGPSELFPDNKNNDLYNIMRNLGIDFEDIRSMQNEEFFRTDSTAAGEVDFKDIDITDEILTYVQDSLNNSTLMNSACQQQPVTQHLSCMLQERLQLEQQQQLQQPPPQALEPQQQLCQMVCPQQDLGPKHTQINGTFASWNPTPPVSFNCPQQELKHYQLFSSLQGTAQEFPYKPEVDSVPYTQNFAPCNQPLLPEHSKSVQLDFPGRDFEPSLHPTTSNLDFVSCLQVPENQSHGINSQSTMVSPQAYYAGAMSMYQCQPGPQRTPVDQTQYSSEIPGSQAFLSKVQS
T2 sequence (P11499 whole entry partner): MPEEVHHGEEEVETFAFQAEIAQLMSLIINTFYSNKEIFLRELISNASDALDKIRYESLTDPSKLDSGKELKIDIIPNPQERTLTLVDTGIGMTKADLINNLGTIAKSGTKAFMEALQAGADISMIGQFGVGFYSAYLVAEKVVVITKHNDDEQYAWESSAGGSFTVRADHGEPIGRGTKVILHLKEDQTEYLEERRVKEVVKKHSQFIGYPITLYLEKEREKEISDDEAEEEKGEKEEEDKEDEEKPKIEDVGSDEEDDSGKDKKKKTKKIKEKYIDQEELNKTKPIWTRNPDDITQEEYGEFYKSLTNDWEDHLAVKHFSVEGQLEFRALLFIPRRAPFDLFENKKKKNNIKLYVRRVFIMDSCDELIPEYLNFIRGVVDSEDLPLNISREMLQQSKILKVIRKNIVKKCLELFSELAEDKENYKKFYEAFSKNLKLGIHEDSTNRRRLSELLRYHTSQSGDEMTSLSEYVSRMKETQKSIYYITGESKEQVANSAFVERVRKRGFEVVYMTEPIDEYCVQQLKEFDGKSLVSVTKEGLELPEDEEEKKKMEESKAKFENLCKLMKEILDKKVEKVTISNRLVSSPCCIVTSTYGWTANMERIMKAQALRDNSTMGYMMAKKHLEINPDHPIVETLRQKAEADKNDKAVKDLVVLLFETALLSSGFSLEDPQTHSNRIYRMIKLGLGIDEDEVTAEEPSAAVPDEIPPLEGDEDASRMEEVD
T2 sequence (O08915 whole entry partner): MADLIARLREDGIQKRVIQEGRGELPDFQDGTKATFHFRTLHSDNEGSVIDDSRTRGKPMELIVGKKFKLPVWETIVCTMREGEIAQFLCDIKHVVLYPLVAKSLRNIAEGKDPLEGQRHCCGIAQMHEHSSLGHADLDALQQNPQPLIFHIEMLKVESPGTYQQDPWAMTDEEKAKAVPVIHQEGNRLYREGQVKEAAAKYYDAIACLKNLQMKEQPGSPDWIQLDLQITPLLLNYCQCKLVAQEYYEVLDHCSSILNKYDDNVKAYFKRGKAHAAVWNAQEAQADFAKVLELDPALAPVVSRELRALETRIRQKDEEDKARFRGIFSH

| binding to AhR (displacement of radiolabeled TCDD) [2] | SMILES | DMBA-induced decrease in total number of bone marrow cells [3] | DMBA-induced decrease in pro B cells, pre-B cells and neutrophils [3] | BP1 tumor invasion in Matrigel [4] | PPARγ-driven reporter activity ([6]; 10 μM) | cell growth (3H-thymidine incorporation) [7] | IC50 [8] | tumor invasion, Boyden Chambers [9] | tumor invasion, Matrigel [10] | constitutive AhR activity (pGudLuc activity) [11] | other results |
| --- | --- | --- | --- | --- | --- | --- | --- | --- | --- | --- | --- |
| bind human AhR | NC(=O)COc1c(-c2ccc(Br)o2)oc2ccccc2c1=O [CB7993113] | prevented | completely blocked | blocks | no effect |  |  |  |  |  | toxicity [1]: not toxic; DMBA-induced AhR translocation to the nucleus ([5]; 1-10 uM, 1 h before DMBA, 30 min): completely blocked; translocation of the AhR to the nucleus, inhibitor alone (agonist activity) ([5]; no DMBA): no effect |
|  | c1ccc2c(Cc3c[nH]c4ccccc34)c[nH]c2c1 [DIM, 3,3′-diindolylmethane, reference compound] |  |  | reduce |  |  |  |  |  |  |  |
|  | Cc1ccccc1N=Nc1ccc(NC(=O)c2ccnn2C)c(C)c1 [CH223191, reference compound] | prevented | completely blocked |  | no effect | blocked; also recorded: inhibit | 330 nM | inhibit tumor invasion | inhibit tumor invasion | inhibit |  |
|  | CCOC(=O)Oc1c(-c2ccc(Cl)cc2)oc2ccccc2c1=O [CB7950998] |  |  | reduce |  |  |  |  |  |  |  |
| bind human AhR | COc1ccc2c(c1)C(=O)[C@H](OC(=O)NS(=O)(=O)c1ccc(C)cc1)[C@@H](c1ccc(OC)c(Br)c1)O2 [CMLD-2166] |  |  |  |  | blocked | 200 nM | inhibit tumor invasion | inhibit tumor invasion | inhibit | cell growth (3H-thymidine incorporation) ([7]; listed as CMLD 2166): inhibit; PPARγ-driven reporter activity ([6]; 50 μM): no effect |
